Data taken from publication PMC7911614, “Development and Characterization of a Tacrolimus/Hydroxypropyl-β-Cyclodextrin Eye Drop” (Pharmaceutics, 2021).
Values after ≈ are worked out from the molar mass of the structure shown. Like-named read-outs stand apart in the source and are kept apart here.

Assays:
[1] = parameters: method as in PMID 29751694; conditions: cited from earlier work
physchem = type: physicochemical
Procedure: A phase solubility diagram was used to estimate the stability constant (K) of the tacrolimus/HPβCD inclusion complex. The solubility measurements were carried out following the previous work of our research group, described by Anguiano-Igea et al.. This protocol was adjusted to the Higuchi and Connors phase solubility model. A solubility study was carried out by adding an excess amount of the tacrolimus powder to MilliQ® aqueous solutions containing increasing concentrations of HPβCD (from 0 to 400 mg/mL). The vials containing these suspensions were then shaken in a VWR incubated mini-shaker (VWR International, Radnor, PA, USA) at 25 °C and 250 rpm for 7 days until reaching an equilibrium. […]
Tacrolimus concentration was determined for each sample using an HPLC system (Agilent 1260 series; Agilent Technologies®, Santa Clara, CA, USA) equipped with a Diode Array Detector HS, a solvent delivery quaternary pump system, 400 bar maximum pressure and an autosampler. […] A 210-nm wavelength was employed for the tacrolimus quantification. […]
These constants values were calculated using the following Equation (1):S = S0 +(K1:1·S0 + K1:1·K1:2·S0·[HPβCD])·[HPβCD],(1) where S is the total solubility, S0 is the free drug solubility and K1:1 and K1:2 are the stability constants of the complex tacrolimus/HPβCD. […]

[2] = NMR saturation transfer difference (STD) study of tacrolimus/HPβCD binding; conditions: D2O, read-out: Kd of tacrolimus/HPβCD binding equilibrium
Procedure: NMR experiments were conducted at two different temperature conditions, 278 and 298 K, on a Bruker NEO 17.6 T spectrometer (proton resonance 750 MHz) (Billerica, MA, USA), equipped with a ^1H/^13C/^15N triple resonance PA-TXI probe with a deuterium lock channel and a shielded Pulse Field Gradient (PFG) z-gradient. The spectrometer control software was TopSpin 4.0 (Billerica, MA, USA, 2020). The reported chemical shifts are referenced to the lock deuterium solvent. Spectra were processed and analyzed using Mestrenova v14.0 software (Mestrelab Research S.L., Santiago de Compostela, Spain, 2019).
One-dimensional saturation transfer difference ^1H spectra (STD) were measured. The experiment consisted of a selective saturation pulse train, a WET selective solvent suppression module and a 90-degree hard-pulse followed by fid (free induction decay) acquisition. The selective saturation consisted of a train of soft Gaussian-shaped pulses of 50-ms duration with a 1-ms interpulse delay. The selective saturation was applied during 2 s at a specific frequency of the ^1H spectrum, covering a region of the spectrum of ± 125 Hz around the chosen frequency (i.e., ± 0.17 ppm in a 750 spectrometer). The STD^off saturation was applied at 20 ppm. […] The STD^on and STD^off scans were measured in alternate scans and subtracted by the phase cycling, providing the subtracted STD^off-on spectra. […]

[3] = parameters: method as in PMID 32599134, PMID 24015381; conditions: cited from earlier work
T cell proliferation = tested on: T cell proliferation; parameters: method as in PMID 22511024; conditions: cited from earlier work

| Structure (SMILES) | surface tension in solution [1] | K1:2 stability constant of tacrolimus/HPβCD complex (physchem) [M⁻¹] | solubility at 7 days (physchem) [µg/mL] | Kd ([2]; 278 K, inferred from STD response) [mM] | Kd ([2]; 298 K, inferred from absence of STD response) [mM] | water solubility [3] [µg/mL] | immunosuppressive activity, times more potent than cyclosporine A (T cell proliferation) [times] |
| --- | --- | --- | --- | --- | --- | --- | --- |
| CC(O)COC[C@H]1O[C@@H]2O[C@H]3[C@H](O)[C@@H](O)[C@@H](O[C@H]4[C@H](O)[C@@H](O)[C@@H](O[C@H]5[C@H](O)[C@@H](O)[C@@H](O[C@H]6[C@H](O)[C@@H](O)[C@@H](O[C@H]7[C@H](O)[C@@H](O)[C@@H](O[C@H]8[C@H](O)[C@@H](O)[C@@H](O[C@H]1[C@H](O)[C@H]2O)O[C@@H]8COCC(C)O)O[C@@H]7COCC(C)O)O[C@@H]6COCC(C)O)O[C@@H]5COCC(C)O)O[C@@H]4COCC(C)O)O[C@@H]3COCC(C)O (stereo partly drawn) [HPβCD, 2-hydroxypropyl-β-cyclodextrin] | 54.8–57.5 mN/m | – | – | – | – | – | – |
| C=CC[C@@H]1/C=C(\C)C[C@H](C)C[C@H](OC)[C@H]2O[C@@](O)(C(=O)C(=O)N3CCCC[C@H]3C(=O)O[C@H](/C(C)=C/[C@@H]3CC[C@@H](O)[C@H](OC)C3)[C@H](C)[C@@H](O)CC1=O)[C@H](C)C[C@@H]2OC [Tacrolimus] | – | 2.1 ± 0.6 | 4 ± 0.67 (≈ 4.97 µM) | < 1 | > 10 | 1 to 12 | 100 |
